Experiments:
[1] = test system: Influenza strain A549 A/WSN/33 (H1N1); experiment: microbe, parasite or virus in culture; type: cell-based; details: Influenza A virus, A549, 20 h, A549 cells, influenza A/WSN/33 (H1N1), 20 hours incubation; read-out: A549_A(H1N1) EC50
in vitro = details: human, CC50, uninfected A549 cells, CellTiter-Glo

| SMILES | EC50 [1] | CC50 (in vitro) |
| --- | --- | --- |
| O=C1c2c(O)c(=O)ccn2N2CN1C/C=C\COc1ccccc1[C@H]2c1ccccc1 [Compound 5A, (18R,Z)-12-hydroxy-18-phenyl-6,9-dihydro-18H-10,17-methanobenzo[b]pyrido[1,2-f][1]oxa[5,6,9]triazacyclotridecine-11,13-dione] | 8 nM | > 2000 nM |
| O=C1c2c(O)c(=O)ccn2N2CN1C/C=C\COc1ccccc1[C@@H]2c1ccccc1 [Compound 5B, (18S,Z)-12-hydroxy-18-phenyl-6,9-dihydro-18H-10,17-methanobenzo[b]pyrido[1,2-f][1]oxa[5,6,9]triazacyclotridecine-11,13-dione] | > 1000 nM | > 2000 nM |
| O=C1c2c(O)c(=O)ccn2N2CN1C/C=C\COc1ccccc1C2c1ccccc1 (stereo not drawn) [Compound 5] | 26 nM | > 2000 nM |
| O=C1c2c(O)c(=O)ccn2N2CN1C/C=C/CCOc1cccc(c1)C2c1ccccc1 (stereo not drawn) [Compound 6, (*E)-15-hydroxy-2-phenyl-12,13,14,16-tetrahydro-11H-4-oxa-1(1,3)-pyrido[2,1-f][1,2,4]triazina-3(1,3)-benzenacyclononaphan-7-ene-14,16-dione] | 6150 nM | > 20000 nM |
| O=C1c2c(O)c(=O)ccn2N2CN1CCCCOc1ccccc1C2c1ccccc1 (stereo not drawn) [Compound 8, 12-hydroxy-18-phenyl-6,7,8,9-tetrahydro-18H-10,17-methanobenzo[b]pyrido[1,2-f][1]oxa[5,6,9]triazacyclotridecine-11,13-dione] | 59 nM | > 2000 nM |
| O=C1c2c(O)c(=O)ccn2N2CN1CCCCOc1ccccc1[C@H]2c1ccccc1 [Compound 8A, (18R)-12-hydroxy-18-phenyl-6,7,8,9-tetrahydro-18H-10,17-methanobenzo[b]pyrido[1,2-f][1]oxa[5,6,9]triazacyclotridecine-11,13-dione] | 13 nM | > 2000 nM |
| O=C1c2c(O)c(=O)ccn2N2CN1CCCCOc1ccccc1[C@@H]2c1ccccc1 [Compound 8B, (18S)-12-hydroxy-18-phenyl-6,7,8,9-tetrahydro-18H-10,17-methanobenzo[b]pyrido[1,2-f][1]oxa[5,6,9]triazacyclotridecine-11,13-dione] | 4130 nM | > 2000 nM |
| O=C1c2c(O)c(=O)ccn2N2CN1CCCCCOc1ccccc1C2c1ccccc1 (stereo not drawn) [Compound 9, 15-hydroxy-2-phenyl-12,13,14,16-tetrahydro-11H-4-oxa-1(1,3)-pyrido[2,1-f][1,2,4]triazina-3(1,2)-benzenacyclononaphane-14,16-dione] | 453 nM | > 2000 nM |
| O=C1c2c(O)c(=O)ccn2N2CN1CC/C=C/COc1ccccc1[C@@H]2c1ccccc1 [Compound 10A, (2S,E)-15-hydroxy-2-phenyl-12,13,14,16-tetrahydro-11H-4-oxa-1(1,3)-pyrido[2,1-f][1,2,4]triazina-3(1,2)-benzenacyclononaphan-6-ene-14,16-dione] | > 1000 nM | > 2000 nM |
| O=C1c2c(O)c(=O)ccn2N2CN1CC/C=C/COc1ccccc1[C@H]2c1ccccc1 [Compound 10B, (2R,E)-15-hydroxy-2-phenyl-12,13,14,16-tetrahydro-11H-4-oxa-1(1,3)-pyrido[2,1-f][1,2,4]triazina-3(1,2)-benzenacyclononaphan-6-ene-14,16-dione] | 13 nM | > 2000 nM |
| O=C1c2c(O)c(=O)ccn2N2CN1CCCCCCc1ccccc1C2c1ccccn1 (stereo not drawn) [Compound 11, 15-hydroxy-2-(pyridin-2-yl)-12,13,14,16-tetrahydro-11H-1(1,3)-pyrido[2,1-f][1,2,4]triazina-3(1,2)-benzenacyclononaphane-14,16-dione] | 363 nM | > 2000 nM |
| O=C1c2c(O)c(=O)ccn2N2CN1CCCCCc1ccccc1C2c1ccccn1 (stereo not drawn) [Compound 12, 4-hydroxy-16-(pyridin-2-yl)-7,8,9,10,11,16-hexahydro-6,17-methanobenzo[k]pyrido[1,2-b][1,2,5]triazacyclotridecine-3,5-dione] | 86 nM | > 2000 nM |
| O=C1c2c(O)c(=O)ccn2N2CN1CC/C=C/CCc1ccccc1C2c1ccccc1 (stereo not drawn) [Compound 14, (*E)-15-hydroxy-2-phenyl-12,13,14,16-tetrahydro-11H-1(1,3)-pyrido[2,1-f][1,2,4]triazina-3(1,2)-benzenacyclononaphan-6-ene-14,16-dione] | 48 nM | > 4000 nM |
| O=C1c2c(O)c(=O)ccn2N2CN1CCC/C=C\Cc1ccccc1C2c1ccccn1 (stereo not drawn) [Compound 15, (Z)-15-hydroxy-2-(pyridin-2-yl)-12,13,14,16-tetrahydro-11H-1(1,3)-pyrido[2,1-f][1,2,4]triazina-3(1,2)-benzenacyclononaphan-5-ene-14,16-dione] | 635 nM | > 20000 nM |
| O=C1c2c(O)c(=O)ccn2N2CN1C/C=C/COCc1ccccc1C2c1ccccc1 (stereo not drawn) [Compound 17, (E)-15-hydroxy-2-phenyl-12,13,14,16-tetrahydro-11H-5-oxa-1(1,3)-pyrido[2,1-f][1,2,4]triazina-3(1,2)-benzenacyclononaphan-7-ene-14,16-dione] | 77 nM | > 20000 nM |
| O=C1CCN2CN(C(c3ccccc3)c3ccccc3CN1)n1ccc(=O)c(O)c1C2=O (stereo not drawn) [Compound 18, 12-hydroxy-18-phenyl-5,8,9,18-tetrahydro-10,17-methanobenzo[k]pyrido[1,2-b][1,2,5,9]tetraazacyclotridecine-7,11,13(6H)-trione] | 7910 nM | > 200000 nM |
| O=C1c2c(O)c(=O)ccn2N2CN1C/C=C\CCOc1ccccc1C2c1ccccc1 (stereo not drawn) [Compound 19, (*Z)-15-hydroxy-2-phenyl-12,13,14,16-tetrahydro-11H-4-oxa-1(1,3)-pyrido[2,1-f][1,2,4]triazina-3(1,2)-benzenacyclononaphan-7-ene-14,16-dione] | 260 nM | > 2000 nM |
| O=C1c2c(O)c(=O)ccn2N2CN1CCC/C=C\c1cccc3c1[C@H]2c1ccccc1CC3 [Compound 31B, (19bR,Z)-4-hydroxy-8,9,15,19b-tetrahydro-7H,14H-13,12-(epiprop[1]en[1]yl[3]ylidene)-6,20-methanobenzo[3,4]cyclohepta[1,2-1]pyrido[1,2-b][1,2,5]triazacyclotridecine-3,5-dione] | 4 nM | > 2000 nM |
| CC[C@@H]1/C=C/COc2ccccc2[C@H](c2ccccc2)N2CN1C(=O)c1c(O)c(=O)ccn12 [Compound 39AA, (9R,18S,E)-9-ethyl-12-hydroxy-18-phenyl-6,9-dihydro-18H-10,17-methanobenzo[b]pyrido[1,2-f][1]oxa[5,6,9]triazacyclotridecine-11,13-dione] | > 1000 nM | > 2000 nM |
| CC[C@H]1/C=C/COc2ccccc2[C@H](c2ccccc2)N2CN1C(=O)c1c(O)c(=O)ccn12 [Compound 39AB, (9S,18S,E)-9-ethyl-12-hydroxy-18-phenyl-6,9-dihydro-18H-10,17-methanobenzo[b]pyrido[1,2-f][1]oxa[5,6,9]triazacyclotridecine-11,13-dione] | > 1000 nM | > 2000 nM |
| CC[C@@H]1/C=C/COc2ccccc2[C@@H](c2ccccc2)N2CN1C(=O)c1c(O)c(=O)ccn12 [Compound 39BA, (9R,18R,E)-9-ethyl-12-hydroxy-18-phenyl-6,9-dihydro-18H-10,17-methanobenzo[b]pyrido[1,2-f][1]oxa[5,6,9]triazacyclotridecine-11,13-dione] | 6 nM | > 200 nM |

From patent publication US11312727B1, “Macrocyclic flu endonuclease inhibitors” (Janssen BioPharma, Inc., priority 2018, dated 2022)
